Data set [1] has as its target T1, FGFR2 (Homo sapiens, UniProt P21802). In words: In-cell proteome-wide competitive ABPP, HEK293: FGFR2. To be noted: HEK293, compound 60 min, then 2 (20 nM) 10 min.
The target of data set [2] is EIF3F (Homo sapiens, UniProt O00303). In words: Quantitative chemical proteomic profiling of ABP 2 in HEK293 cells: EIF3F. To be noted: for Log2 reporter intensity values (Log2FC, DMSO substract): EIF3F, listed as ABP 2.
For data set [3], the target named is fibroblast growth factor receptor 2 (FGFR2) (Homo sapiens, UniProt P21802). Put plainly: Quantitative chemical proteomic profiling of ABP 2 in HEK293 cells: FGFR2. To be noted: HEK293, 20 nM.
fibroblast growth factor receptor 2 (FGFR2), sequence (P21802 22-821): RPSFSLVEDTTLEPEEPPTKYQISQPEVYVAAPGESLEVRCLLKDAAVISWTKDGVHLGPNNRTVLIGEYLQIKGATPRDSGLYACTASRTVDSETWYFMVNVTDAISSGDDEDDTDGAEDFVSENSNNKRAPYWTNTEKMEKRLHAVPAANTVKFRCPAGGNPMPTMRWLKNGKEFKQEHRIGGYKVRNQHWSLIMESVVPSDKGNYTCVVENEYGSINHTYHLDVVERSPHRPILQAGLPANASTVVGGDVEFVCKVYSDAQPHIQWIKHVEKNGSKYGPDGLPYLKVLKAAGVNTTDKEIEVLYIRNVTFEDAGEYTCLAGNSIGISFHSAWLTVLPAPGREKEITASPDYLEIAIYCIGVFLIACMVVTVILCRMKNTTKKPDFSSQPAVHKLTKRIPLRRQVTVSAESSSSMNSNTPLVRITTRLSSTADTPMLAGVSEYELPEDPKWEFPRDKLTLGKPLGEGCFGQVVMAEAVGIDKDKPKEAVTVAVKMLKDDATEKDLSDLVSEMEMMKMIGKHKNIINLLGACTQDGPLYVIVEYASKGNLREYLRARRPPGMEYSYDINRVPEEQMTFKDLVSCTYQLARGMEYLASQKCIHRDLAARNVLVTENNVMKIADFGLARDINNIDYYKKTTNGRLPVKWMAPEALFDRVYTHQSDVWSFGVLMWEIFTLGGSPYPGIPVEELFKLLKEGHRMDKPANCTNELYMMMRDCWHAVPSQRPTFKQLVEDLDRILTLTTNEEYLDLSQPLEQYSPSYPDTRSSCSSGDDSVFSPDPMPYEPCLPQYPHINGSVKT
In data set [4] the target is T2, DUBs and other proteins in HEK293 cells (Homo sapiens, UniProt P51665).
T2 sequence (P51665 1-324): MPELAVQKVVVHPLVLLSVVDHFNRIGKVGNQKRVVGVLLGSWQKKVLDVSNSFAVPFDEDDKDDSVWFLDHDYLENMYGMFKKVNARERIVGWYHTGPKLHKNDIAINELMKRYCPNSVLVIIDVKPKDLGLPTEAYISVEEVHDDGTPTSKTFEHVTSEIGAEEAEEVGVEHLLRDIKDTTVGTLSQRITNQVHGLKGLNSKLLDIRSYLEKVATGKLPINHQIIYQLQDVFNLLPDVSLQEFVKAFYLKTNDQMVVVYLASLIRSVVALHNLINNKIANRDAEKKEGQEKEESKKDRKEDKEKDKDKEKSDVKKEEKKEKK
Put plainly: Quantitative chemical proteomic profiling of ABP 2 in HEK293 cells: other DUBs and proteins across the proteome. To be noted: PSMD7, listed as ABP 2.

Data set [5] concerns the target DUBs and other proteins in HEK293 cells (Homo sapiens, UniProt P51784). The data set is described as above. The conditions noted are these: USP11, listed as ABP 2.
The target of data set [6] is PSMD14 (Homo sapiens, UniProt O00487). In words: Quantitative chemical proteomic profiling of ABP 2 in HEK293 cells: PSMD14. The conditions noted are these: for Log2 reporter intensity values (Log2FC, DMSO substract): PSMD14, listed as ABP 2.
The test system of data set [7] is FLAG-UCHL1 (WT, C90A, C90S). The conditions noted are these: HeLa cells overexpressing FLAG-UCHL1, 1 h.
Data set [8] can be described thus: ABP 2 stability in cell culture medium (in-gel fluorescence readout). To be noted: DMEM medium, 37 °C, then 1 h on HEK293 cells.
The target of data set [9] is T1, FGFR2. Put plainly: ABP 2 labeling in HEK293 cells, pulldown and FGFR2 immunoblotting. The conditions noted are these: HEK293, any concentration up to 2 μM. For orientation: In western blotting, separated proteins are transferred to a membrane and probed.
Data set [10] deals with T3, endogenous UCHL1 (Homo sapiens, UniProt P09936).
T3 construct: endogenous in cells; host or cells: EA.hy926 and A549
In words: ABP 2 target engagement in EA.hy926 and A549 cells (in-gel fluorescence, immunoblot). Type of data set: cell-based. To be noted: 3 h. An excerpt:
Figure S13. ABP 2 target engagement in A549 and EA.hy926 cells. […]
labeled proteins ligated to AzTB capture reagent. (a) Labeled proteins were separated by SDS-PAGE and visualised by in-gel fluorescence. (b) Labeled proteins were enriched by NeutrAvidin magnetic beads. Total lysate (TL), supernatant (SN) an d pulldown (PD) samples […]
Preparation of UCHL1 overexpression cell lysates
After cell lysis and CuAAC […]
relative to the sample volume.
SDS-PAGE and in-gel fluorescence imaging
The protein samples were separated
Biotin affinity enrichment for immunoblot analysis […]
re-suspended as described previously.
Proteins were separated by SDS-
Sample preparation for MS-based proteomic analysis

For data set [11], the target named is T4, UCHL1 (Homo sapiens, UniProt P09936).
T4 sequence (P09936 1-223): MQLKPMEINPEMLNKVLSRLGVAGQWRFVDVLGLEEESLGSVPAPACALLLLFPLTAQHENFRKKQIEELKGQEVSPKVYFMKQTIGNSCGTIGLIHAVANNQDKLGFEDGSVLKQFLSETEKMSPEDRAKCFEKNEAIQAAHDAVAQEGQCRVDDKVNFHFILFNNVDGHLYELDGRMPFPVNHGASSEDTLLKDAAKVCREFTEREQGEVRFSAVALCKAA
Put plainly: Quantitative chemical proteomic profiling of ABP 2 in HEK293 cells (AzRB enrichment, TMT): UCHL1. The conditions noted are these: for Log2 reporter intensity values (Log2FC, DMSO substract): UCHL1, listed as ABP 2.

Data set [12] addresses T4, UCHL1. In words: ABP 2 labeling in HEK293 cells, AzTB ligation, in-gel fluorescence. To be noted: HEK293, time course.
Data set [13] concerns the target T4, UCHL1. To be noted: compared with 1.
For data set [14], the system named is primary human bronchial fibroblasts from IPF patients.
The mark [15] stands for this setting: 200 nM, 180 min, replicates A,C.
[16] abbreviates: HEK293, 20 nM vs DMSO, 1 h, enrichment, TMT, n=3.
Where [17] appears, read: HEK293, 200 nM vs DMSO, 1 h, enrichment, TMT, n=3.
The mark [18] stands for this setting: HEK293, 2 nM vs DMSO, 1 h, enrichment, TMT, n=3.

This note sets out measurements from article PMC7366380, “Discovery of a Potent and Selective Covalent Inhibitor and Activity-Based Probe for the Deubiquitylating Enzyme UCHL1, with Antifibrotic Activity” (Journal of the American Chemical Society, 2020).

Several values for one entry are separate records, joined by “and”; a condition that tells them apart may be missing. Equal entries are not always repeated.

DUBs and other proteins in HEK293 cells (Homo sapiens, UniProt P51784), sequence (P51784 whole entry): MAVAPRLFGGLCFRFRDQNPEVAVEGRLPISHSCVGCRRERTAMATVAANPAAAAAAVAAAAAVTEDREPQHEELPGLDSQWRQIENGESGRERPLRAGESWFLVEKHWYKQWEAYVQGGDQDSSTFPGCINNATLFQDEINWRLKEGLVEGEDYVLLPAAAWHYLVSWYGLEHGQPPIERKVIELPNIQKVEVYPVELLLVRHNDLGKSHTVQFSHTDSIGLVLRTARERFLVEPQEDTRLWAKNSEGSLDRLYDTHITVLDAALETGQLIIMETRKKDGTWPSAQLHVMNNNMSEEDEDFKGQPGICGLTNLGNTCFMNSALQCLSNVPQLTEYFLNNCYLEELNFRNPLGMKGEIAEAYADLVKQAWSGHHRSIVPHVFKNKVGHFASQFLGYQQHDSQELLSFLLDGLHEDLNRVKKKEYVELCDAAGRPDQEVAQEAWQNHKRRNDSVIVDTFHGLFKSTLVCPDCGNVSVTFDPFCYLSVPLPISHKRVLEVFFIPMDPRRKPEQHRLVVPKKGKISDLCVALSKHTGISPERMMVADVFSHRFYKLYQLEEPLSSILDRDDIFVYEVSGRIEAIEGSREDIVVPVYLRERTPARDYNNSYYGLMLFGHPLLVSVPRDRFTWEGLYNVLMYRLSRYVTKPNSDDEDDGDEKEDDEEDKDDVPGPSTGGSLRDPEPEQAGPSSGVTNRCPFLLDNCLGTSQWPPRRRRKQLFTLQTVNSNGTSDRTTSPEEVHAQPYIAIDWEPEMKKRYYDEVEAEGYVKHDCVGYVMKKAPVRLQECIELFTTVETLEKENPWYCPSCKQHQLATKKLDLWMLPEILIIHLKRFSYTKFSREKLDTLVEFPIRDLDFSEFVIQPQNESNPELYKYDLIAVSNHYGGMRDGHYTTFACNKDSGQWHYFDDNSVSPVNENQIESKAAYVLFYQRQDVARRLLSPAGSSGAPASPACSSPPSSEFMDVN
T1 sequence (P21802 22-821): as the sequence (P21802 22-821) above

For `N#CN1CCC[C@H]1C(=O)N1CCc2c(-c3c[nH]c4ncccc34)cccc21` [Compound 1], the “FGFR2 response in proteome-wide competitive ABPP” value in data set [1] was “responds”.

Regarding `C#Cc1cnc2[nH]cc(-c3cccc4c3CCN4C(=O)[C@@H]3CCCN3C#N)c2c1` [Compound 2], the “Log2 reporter intensity values (Log2FC, DMSO substract)” value (shortened to “Log2 reporter intensity values”) in data set [2] (2 nM, 60 min, replicates A-C) is 0.2006 and 0.08743 and 0.3363; in [2] (20 nM, 10 min, replicates B,C) it was 0.2292 and 0.2562; in [2] (20 nM, 60 min, replicates A-C), 0.2037 and 0.07421 and -0.06904; in data set [2] (20 nM, 180 min, replicates A-C), 0.329 and 0.1016 and 0.09094; in data set [2] (200 nM, 10 min, replicates B,C), 0.1208 and 0.2271; in data set [2] (200 nM, 60 min, replicates A-C) it was 0.222 and -0.03463 and 0.3157. In addition, the “Log2 reporter intensity values” value in data set [2] (setting [15]) was 0.2814 and 0.1468; in data set [4] (2 nM, 60 min, replicates A-C), -0.04989 and -0.02897 and -0.2015; in data set [4] (20 nM, 10 min, replicates B,C) it was -0.09409 and -0.09867; in [4] (20 nM, 60 min, replicates A-C) it was 0.07866 and 0.1721 and 0.02873; in data set [4] (20 nM, 180 min, replicates A-C), 0.04655 and 0.01609 and -0.03959; in data set [4] (200 nM, 10 min, replicates B,C), 0.1092 and 0.06216. Further, the “Log2 reporter intensity values” value was -0.1489 and -0.1748 in data set [4] (200 nM, 60 min, replicates A-C); -0.06266 and -0.01801 in [4] (setting [15]); 0.1233 and -0.3054 and -0.2167 in data set [5] (2 nM, 60 min, replicates A-C); -0.09443 and -0.2626 in [5] (20 nM, 10 min, replicates B,C); -0.4096 and 0.07333 and 0.009688 in data set [5] (20 nM, 60 min, replicates A-C); -0.127 and -0.3984 and -0.1331 in data set [5] (20 nM, 180 min, replicates A-C). Further, the “Log2 reporter intensity values” value in [5] (200 nM, 10 min, replicates B,C) was 0.008113 and -0.08322; in data set [5] (200 nM, 60 min, replicates A-C) it was 0.1655 and -0.03212 and -0.2868; in data set [5] (setting [15]) it was 0.2311 and 0.03651; in data set [6] (2 nM, 60 min, replicates A-C), 0.2334 and 0.06155 and -0.08529; in data set [6] (20 nM, 10 min, replicates B,C), -0.01968 and 0.08775; in data set [6] (20 nM, 60 min, replicates A-C) it was -0.03468 and 0.06905 and -0.04719. The “Log2 reporter intensity values” value in [6] (20 nM, 180 min, replicates A-C) was 0.05966 and 0.0953 and 0.01379; in data set [6] (200 nM, 10 min, replicates B,C), 0.3381 and 0.09077; in data set [6] (200 nM, 60 min, replicates A-C), 0.2255 and 0.1628 and -0.008927; in data set [6] (setting [15]), 0.02414 and 0.2255; in data set [11] (2 nM, 60 min, replicates A-C), 1.19 and 1.075; in data set [11] (20 nM, 10 min, replicates B,C), 2.249 and 2.237. In addition, the “Log2 reporter intensity values” value was 3.049 and 2.943 and 2.622 in data set [11] (20 nM, 60 min, replicates A-C); 2.8835 and 2.817 and 2.539 in data set [11] (20 nM, 180 min, replicates A-C); 3.8701 and 3.284 in [11] (200 nM, 10 min, replicates B,C); 3.775 and 4.082 and 3.414 in data set [11] (200 nM, 60 min, replicates A-C); 3.588 and 3.369 in data set [11] (setting [15]). Also, the “Log2 t-test Difference, EIF3F, 20 nM” value in [2] (setting [16]) was 0.06962. In [2] (setting [17]), the “Log2 t-test Difference, EIF3F, 200 nM” value turned out to be 0.1677. For the same compound, in data set [3], the “FGFR2 enrichment (chemical proteomics)” value is “significantly enriched”. Moreover, the “Log2 t-test Difference, PSMD14, 2 nM” value in [6] (setting [18]) is listed as 0.06988. Besides, the “Log2 t-test Difference, PSMD14, 20 nM” value in data set [6] (setting [16]) is given as -0.004272. For the same compound, the “Log2 t-test Difference, PSMD14, 200 nM” value in [6] (setting [17]) turned out to be 0.1265. Further, the “labeling of WT versus C90A/C90S UCHL1” value in [7] is listed as “only WT UCHL1 is labeled”. In addition, the “stability in media without loss of activity” value in [8] is greater than 72 h. Besides, in data set [9], the “FGFR2 enrichment by pulldown and immunoblotting” value is listed as “barely detectable”. Also, the “profiling of endogenous UCHL1 activity in other cell types” value in data set [10] is recorded as “excellent selectivity”. Besides, in data set [11] (setting [18]), the “Log2 t-test Difference, UCHL1, 2 nM” value was 1.208. In [11] (setting [16]), the “Log2 t-test Difference, UCHL1, 20 nM” value came to 2.871. For the same compound, in [11] (setting [17]), the “Log2 t-test Difference, UCHL1, 200 nM” value worked out at 3.757. In [11] (HEK293, 2, 20 or 200 nM, 10, 60 or 180 min), the “UCHL1 enrichment (chemical proteomics)” value is “significantly enriched”. Besides, in data set [12], the “time to maximal labeling” value is listed as no more than 60 min.

Consider `N#CN1CCC[C@@H]1C(=O)N1CCc2c(-c3c[nH]c4ncccc34)cccc21` [Compound 3], for which the “fold less active than 1 (UCHL1 FP assay)” value in [13] was greater than 1000 fold.

Regarding `CC(=O)O/N=C1\C(=O)N(Cc2cc(Cl)ccc2Cl)c2ccc(Cl)cc21` [LDN-57444, reference compound], the “cytotoxicity (in words)” value in [14] is “increased cytotoxicity”.
